# Measurements as given in US20250161297A1, “COMPOSITIONS AND METHODS FOR INHIBITING FSP1” (THE REGENTS OF THE UNIVERSITY OF CALIFORNIA, priority 2022, published 2025).
# Tests used:
# [1] = test system: H460^C cells; assay: DHA- and FINO2-induced cell death with FSEN1 co-treatment; assay type: cell-based; conditions: 1 μM FSEN1
# Method: (§1) For cell-based screen, cells were seeded in triplicate at a density of 500-750 cells per 50 μL per well in black 384-well plates (NUNC) and (Corning) 24 hr before start of imaging. After 24 hr, an additional 50 μL of drug infused medium containing 30 nM SYTOX Green Dead Cell Stain was carefully placed into the wells on top of existing medium. The plates were immediately transferred to an IncuCyte S3 imaging system (Essen Bioscience) enclosed in an incubator set to 37° C. and 5% CO2. One image per well were captured in the phase, green, and red channels every 1.5 or 3 hr over a 24 hr period, and the ratio of SYTOX Green-positive objects (dead cells) to SYTOX Green-positive plus Sg-SAFE mCherry-positive objects (total cells) was quantified using S3 image analysis software (Essen Bioscience). For each treatment condition, the SYTOX-to-′SYTOX+mCherry′-object ratio was plotted against the 24 hr imaging interval, the Area Under the Curve (AUC) was calculated and the average AUC was plotted using Prism (GraphPad). To calculate the half-maximal effective concentration (EC50) values, the AUC curve was fit to a variable slope function comparing response to drug concentration.
# (§2) Synergy experiments: For cell-based synergy experiments, cells were seeded at a density of 750 cells per 25 μL per well in four black 384-well plates (Corning) 24 hr before start of imaging. After 24 hr, an additional 25 μL of drug infused medium containing 30 nM SYTOX Green Dead Cell Stain was carefully placed into the wells on top of existing medium. The plates were immediately transferred to an IncuCyte S3 imaging system (Essen Bioscience) enclosed in an incubator set to 37° C. and 5% CO2. One image per well were captured in the phase, green, and red channels every 4 hr over a 24 hr period, and the ratio of SYTOX Green-positive objects (dead cells) to SYTOX Green-positive plus Sg-SAFE mCherry-positive objects (total cells) was quantified using S3 image analysis software (Essen Bioscience). For each treatment condition, the SYTOX-to-′SYTOX+mCherry′-object ratio was plotted against the 24 hr imaging interval, the Area Under the Curve (AUC) was calculated, and the average AUC was plotted as a function of drug concentration (for example, RSL3) using Prism (GraphPad). To calculate the half-maximal effective concentration (EC50) values, the AUC curve was fit to a variable slope function comparing response to drug concentration.
# [2] = test system: A375 melanoma cells; assay: cell death in A375 cells; assay type: cell-based
# Method: as §1, with “concentration. […]” for “concentration.”
# [3] = test system: A549 lung cancer cells; assay: RSL3-induced cell death in A549 cells; assay type: cell-based
# Method: as §1, with “concentration. […]” for “concentration.”
# [4] = test system: H460^C cells; assay: GPX4 inhibitor-induced cell death with FSEN1 co-treatment; assay type: cell-based
# Method: as §1, §2
# [5] = test system: H460^C FSP1KO cells; assay: RSL3-, DHA- or FINO2-induced cell death in FSP1 knockout cells; assay type: cell-based
# Method: as §1
# Synergy experiments: For cell-based synergy experiments, cells were seeded at a density of 750 cells per 25 μL per well in four black 384-well plates (Corning) 24 hr before start of imaging. […]
# [6] = test system: H460^C GPX4^KO cells; assay: cell-based assay of FSP1 activity, cell death (SYTOX Green/mCherry lethal fraction); conditions: H460^C GPX4^KO cells; read-out: EC50 for triggering cell death
# Method: as §1
# In addition to the in vitro activity assay, an orthogonal cell-based assay of FSP1 activity was also developed. […]
smiles,measurement,setting,value
COc1ccc(N2CCN(Cc3cn4c(-c5ccc(Br)cc5)nnc4s3)CC2)cc1 [FSEN1],sensitization to cell death induced by DHA and FINO2,[1],strongly sensitized
same,ferroptosis in the absence of an RSL3 co-treatment,[2],induced a small amount of ferroptosis
same,sensitizing effect on ferroptosis induction,[3],particularly large sensitizing effect
same,sensitization to GPX4 inhibitors RSL3 and ML162,[4],sensitized
same,additional sensitizing effect to DHA and FINO2 induced cell death,[5]; FSP1KO cells,no additional sensitizing effect
same,additional sensitization to RSL3-induced cell death,[5]; H460^C FSP1KO cells,did not result in any additional sensitization
same,EC50,[6],69.4 nM
